Test results reported in PMC3726442 (PLoS ONE, 2013).

Experiment: Plasma concentrations of tamoxifen and its metabolites in breast cancer patients on tamoxifen, by HPLC-tandem mass spectrometry
[1] = all samples analyzed, n = 125, before daily 20 mg TAM dose

Excerpt: One hundred and thirty five Caucasian patients of Spanish descent recently diagnosed with BC were recruited from the center Fundación Tejerina-Centro de Patología de la Mama (Madrid). Premenopausal and postmenopausal women were enrolled when started on TAM as standard adjuvant therapy after undergoing primary surgery, radiation and adjuvant chemotherapy. Patients were excluded if they had started TAM therapy simultaneously with either adjuvant chemotherapy or adjuvant radiation therapy (or both) or if they were undergoing other adjuvant endocrine therapies. Patients who were pregnant or breast-feeding were also excluded from the study. […] Blood samples were collected within 3 to 60 months of initiating TAM treatment.
Venous blood was collected from all 135 subjects before taking their daily 20- mg dose of TAM. Ten milliliters of heparin plasma were separated by centrifugation and immediately stored at −20°C until analysis. In addition, one milliliter of an EDTA blood sample was taken for subsequent DNA extraction and genotyping. DNA was isolated from peripheral leukocytes using a QIAamp DNA Blood Mini Kit® (Qiagen, Madrid, Spain) according to the manufacturer’s instructions. The DNA concentration was determined and adjusted to 2–20 ng/ µL.
TAM and its metabolites were separated and quantified by high-pressure liquid chromatography-tandem mass spectrometry using an Agilent HPLC 1200 system. HPLC experiments were performed using a binary pump G1312A, a G1316A column oven, G1379B degasser and an automatic injector H-ALS G1367B. Mobile phase A and phase B consisted of 0.1% formic acid in water and acetonitrile, respectively. Mobile phases A and B were pumped through a ZORBAX Eclipse XDB-C18 column (150 mm×2.1 mm I.D., 3.5 µm, Agilent USA) at a flow rate of 0.2 mL/min using the gradient shown in Table 1. Separation was conducted at 30°C. 15- µL aliquots were injected and the autosampler needle was rinsed in acetonitrile/water solution (1∶1). The total run time was 20 min. During the first 4.0 and last 2.0 min, the eluate was removed using a divert valve to avoid endogenous compounds entering the mass spectrometer.
As a detector, we used an A 6410 Triple Quadrupole mass spectrometer (Agilent Technologies, USA) equipped with a heated electrospray ionization source (Thermo Fisher Scientific, Waltham, MA, USA) operating in positive ion mode. For quantification, multiple reaction monitoring (MRM) chromatograms were acquired using Mass Hunter software version B.01.04 (Agilent Technologies, USA). Positive ions were created at atmospheric pressure. Quadrupoles operated at unit resolution (0.7 Da).
A 300- µL volume of 1% formic acid in acetonitrile containing internal standards was added to a 100- µL serum aliquot. After vortexing and centrifugation, the clear supernatant was transferred to a HybridSPE column (Supelco) and the eluents stored at 2–8°C until analysis. Samples were analyzed in triplicate.
Descriptive statistics were calculated using standard methods. Metabolic ratios were calculated as the concentration of substrate/concentration of metabolite. The non-normal distribution of data was confirmed by the Kolmogorov-Smirnov test. Levels of TAM, metabolites and ratios between genotype groups were compared using Wilcoxon-Mann-Whitney or Kruskal-Wallis tests. All statistical tests (two-sided) were performed using SPSS software (version 18.0 SPSS, Chicago, IL). Significance was set at a p<0.05.

In the case of `CC/C(=C(\c1ccccc1)c1ccc(OCCN(C)C)cc1)c1ccccc1` [Tamoxifen, reference compound], the “plasma concentration, mean ±SD” value (genotype CYP2D6 I/I, n = 1) is reported as 130.54 ± 0.00 ng/mL, the “plasma concentration, median” value (genotype CYP2D6 I/I, n = 1) is reported as 130.54 ng/mL and the “plasma concentration, range” value (genotype CYP2D6 I/I, n = 1) is reported as “(130.54–130.54) ng/mL”. The “plasma concentration, range” value (genotype CYP2D6 I/P, n = 8) was “(88.08–289.96) ng/mL”, the “plasma concentration, mean ±SD” value (genotype CYP2D6 P/P, n = 2) was 278.43 ± 132.13 ng/mL and the “plasma concentration, median” value (genotype CYP2D6 P/P, n = 2) was 278.43 ng/mL. For the same compound, the “plasma concentration, range” value (genotype CYP2D6 P/P, n = 2) was “(185.00–371.83) ng/mL”, the “plasma concentration, mean ±SD” value (genotype CYP2D6 wt/I, n = 4) was 208.48 ± 66.06 ng/mL and the “plasma concentration, range” value (genotype CYP2D6 wt/I, n = 4) was “(151.94–302.03) ng/mL”. The “plasma concentration, mean ±SD” value (genotype CYP2D6 wt/P, n = 26) was 209.57 ± 121.53 ng/mL, the “plasma concentration, range” value (genotype CYP2D6 wt/P, n = 26) was “(89.79–576.23) ng/mL” and the “plasma concentration, mean ±SD” value (genotype CYP2D6 wt/wt, n = 78) was 203.05 ± 80.53 ng/mL. For the same compound, the “plasma concentration, range” value (genotype CYP2D6 wt/wt, n = 78) was “(77.10–573.83) ng/mL”, the “plasma concentration, range” value (genotype CYP2D6 wtxN/P, n = 2) was “(102.91–264.41) ng/mL” and the “plasma concentration, mean ±SD” value (genotype CYP3A4 wt/*1B, n = 3) was 260.69 ± 136.19 ng/mL. For the same compound, the “plasma concentration, median” value (genotype CYP3A4 wt/*1B, n = 3) was 261.00 ng/mL, the “plasma concentration, range” value (genotype CYP3A4 wt/*1B, n = 3) was “(124.35–396.73) ng/mL” and the “plasma concentration, mean ±SD” value (genotype CYP3A4 wt/*3, n = 2) was 212.83 ± 68.55 ng/mL. For the same compound, the “plasma concentration, median” value (genotype CYP3A4 wt/*3, n = 2) was 212.83 ng/mL, the “plasma concentration, range” value (genotype CYP3A4 wt/*3, n = 2) was “(164.35–261.30) ng/mL” and the “plasma concentration, mean ±SD” value (genotype CYP3A4 wt/*17, n = 9) was 230.28 ± 153.17 ng/mL. The “plasma concentration, range” value (genotype CYP3A4 wt/*17, n = 9) was “(88.08–573.83) ng/mL”, the “plasma concentration, mean ±SD” value (genotype CYP3A4 wt/wt, n = 107) was 198.93 ± 89.59 ng/mL and the “plasma concentration, range” value (genotype CYP3A4 wt/wt, n = 107) was “(77.10–576.23) ng/mL”. The “plasma concentration, mean ±SD” value (genotype CYP3A5 *3/*3, n = 117) was 204.98 ± 96.33 ng/mL, the “plasma concentration, range” value (genotype CYP3A5 *3/*3, n = 117) was “(77.10–576.23) ng/mL” and the “plasma concentration, mean ±SD” value (genotype CYP3A5 wt/*3, n = 6) was 164.16 ± 51.72 ng/mL. The “plasma concentration, median” value (genotype CYP3A5 wt/*3, n = 6) was 160.17 ng/mL, the “plasma concentration, range” value (genotype CYP3A5 wt/*3, n = 6) was “(112.43–235.19) ng/mL” and the “plasma concentration, mean ±SD” value (genotype SULT1A1 *2/*2, n = 15) was 205.87 ± 101.52 ng/mL. For the same compound, the “plasma concentration, median” value (genotype SULT1A1 *2/*2, n = 15) was 161.90 ng/mL, the “plasma concentration, range” value (genotype SULT1A1 *2/*2, n = 15) was “(102.43–396.73) ng/mL” and the “plasma concentration, mean ±SD” value (genotype SULT1A1 wt/*2, n = 46) was 204.84 ± 107.12 ng/mL. For the same compound, the “plasma concentration, range” value (genotype SULT1A1 wt/*2, n = 46) was “(77.10–573.83) ng/mL”, the “plasma concentration, mean ±SD” value (genotype SULT1A1 wt/wt, n = 60) was 200.92 ± 86.14 ng/mL and the “plasma concentration, range” value (genotype SULT1A1 wt/wt, n = 60) was “(88.08–576.23) ng/mL”. The “plasma concentration, range” value (genotype SULT1A2 *2/*2, n = 16) was “(95.67–396.73) ng/mL”, the “plasma concentration, mean ±SD” value (genotype SULT1A2 *2/*3, n = 13) was 222.50 ± 93.29 ng/mL and the “plasma concentration, median” value (genotype SULT1A2 *2/*3, n = 13) was 240.78 ng/mL. The “plasma concentration, range” value (genotype SULT1A2 *2/*3, n = 13) was “(112.43–371.37) ng/mL”, the “plasma concentration, median” value (genotype SULT1A2 *3/*3, n = 5) was 164.35 ng/mL and the “plasma concentration, range” value (genotype SULT1A2 *3/*3, n = 5) was “(122.20–302.03) ng/mL”. For the same compound, the “plasma concentration, mean ±SD” value (genotype SULT1A2 wt/*2, n = 33) was 227.33 ± 131.55 ng/mL, the “plasma concentration, range” value (genotype SULT1A2 wt/*2, n = 33) was “(88.08–576.23) ng/mL” and the “plasma concentration, range” value (genotype SULT1A2 wt/*3, n = 16) was “(89.79–378.32) ng/mL”. The “plasma concentration, range” value (genotype SULT1A2 wt/wt, n = 38) was “(77.10–375.04) ng/mL”, the “plasma concentration, mean ±SD” value (genotype SULT1E1 *2/*2, n = 5) was 232.36 ± 83.23 ng/mL and the “plasma concentration, median” value (genotype SULT1E1 *2/*2, n = 5) was 202.74 ng/mL. The “plasma concentration, range” value (genotype SULT1E1 *2/*2, n = 5) was “(166.20–375.04) ng/mL”, the “plasma concentration, mean ±SD” value (genotype SULT1E1 wt/*2, n = 28) was 200.49 ± 77.50 ng/mL and the “plasma concentration, range” value (genotype SULT1E1 wt/*2, n = 28) was “(77.10–368.73) ng/mL”. For the same compound, the “plasma concentration, mean ±SD” value (genotype SULT1E1 wt/wt, n = 88) was 202.17 ± 101.97 ng/mL and the “plasma concentration, range” value (genotype SULT1E1 wt/wt, n = 88) was “(89.79–576.23) ng/mL”.

With 4-hydroxy-tamoxifen [4-OH-tamoxifen] the median plasma concentration [1] was 6.75 ng/mL.

With `CC/C(=C(\c1ccccc1)c1ccc(OCC[N+](C)(C)[O-])cc1)c1ccccc1` [Tamoxifen-N-oxide, tamoxifen-N-oxide] the “mean plasma concentration (±SD)” value [1] was 50.88 ± 23.09 ng/mL, the “plasma concentration, mean ±SD” value (genotype CYP2D6 wt/P, n = 26) was 54.04 ± 25.63 ng/mL and the “plasma concentration, mean ±SD” value (genotype SULT1A1 *2/*2, n = 15) was 56.02 ± 24.50 ng/mL. The “plasma concentration, median” value (genotype SULT1A1 *2/*2, n = 15) was 59.27 ng/mL, the “plasma concentration, range” value (genotype SULT1A1 *2/*2, n = 15) was “(15.69–99.37) ng/mL” and the “plasma concentration, mean ±SD” value (genotype SULT1A1 wt/*2, n = 46) was 51.02 ± 27.88 ng/mL. For the same compound, the “plasma concentration, median” value (genotype SULT1A1 wt/*2, n = 46) was 41.84 ng/mL, the “plasma concentration, range” value (genotype SULT1A1 wt/*2, n = 46) was “(17.43–142.97) ng/mL” and the “plasma concentration, mean ±SD” value (genotype SULT1A1 wt/wt, n = 60) was 48.69 ± 18.93 ng/mL. For the same compound, the “plasma concentration, range” value (genotype SULT1A1 wt/wt, n = 60) was “(15.69–106.35) ng/mL”, the “plasma concentration, mean ±SD” value (genotype SULT1A2 *2/*2, n = 16) was 47.18 ± 20.97 ng/mL and the “plasma concentration, median” value (genotype SULT1A2 *2/*2, n = 16) was 50.56 ng/mL. For the same compound, the “plasma concentration, range” value (genotype SULT1A2 *2/*2, n = 16) was “(15.69–81.94) ng/mL”, the “plasma concentration, mean ±SD” value (genotype SULT1A2 *2/*3, n = 13) was 46.94 ± 17.33 ng/mL and the “plasma concentration, range” value (genotype SULT1A2 *2/*3, n = 13) was “(17.43–90.66) ng/mL”. The “plasma concentration, mean ±SD” value (genotype SULT1A2 *3/*3, n = 5) was 38.35 ± 10.17 ng/mL, the “plasma concentration, range” value (genotype SULT1A2 *3/*3, n = 5) was “(26.15–50.56) ng/mL” and the “plasma concentration, mean ±SD” value (genotype SULT1A2 wt/*2, n = 33) was 60.87 ± 31.96 ng/mL. For the same compound, the “plasma concentration, median” value (genotype SULT1A2 wt/*2, n = 33) was 54.04 ng/mL, the “plasma concentration, range” value (genotype SULT1A2 wt/*2, n = 33) was “(20.53–142.97) ng/mL” and the “plasma concentration, mean ±SD” value (genotype SULT1A2 wt/*3, n = 16) was 47.29 ± 17.70 ng/mL. The “plasma concentration, median” value (genotype SULT1A2 wt/*3, n = 16) was 46.20 ng/mL, the “plasma concentration, range” value (genotype SULT1A2 wt/*3, n = 16) was “(19.18–83.68) ng/mL” and the “plasma concentration, mean ±SD” value (genotype SULT1A2 wt/wt, n = 38) was 47.65 ± 19.19 ng/mL. For the same compound, the “plasma concentration, median” value (genotype SULT1A2 wt/wt, n = 38) was 42.71 ng/mL, the “plasma concentration, range” value (genotype SULT1A2 wt/wt, n = 38) was “(15.69–99.37) ng/mL” and the “plasma concentration, mean ±SD” value (genotype SULT1E1 *2/*2, n = 5) was 49.86 ± 8.94 ng/mL. For the same compound, the “plasma concentration, mean ±SD” value (genotype SULT1E1 wt/*2, n = 28) was 47.65 ± 19.38 ng/mL, the “plasma concentration, median” value (genotype SULT1E1 wt/*2, n = 28) was 47.94 ng/mL and the “plasma concentration, range” value (genotype SULT1E1 wt/*2, n = 28) was “(20.53–90.66) ng/mL”. The “plasma concentration, mean ±SD” value (genotype SULT1E1 wt/wt, n = 88) was 51.48 ± 25.13 ng/mL and the “plasma concentration, range” value (genotype SULT1E1 wt/wt, n = 88) was “(15.69–142.97) ng/mL”.
